# Measured values as given in paper PMC10817512, “OSMAC-Based Discovery and Biosynthetic Gene Clusters Analysis of Secondary Metabolites from Marine-Derived Streptomyces globisporus SCSIO LCY30” (Marine Drugs, 2023).
# Like-named read-outs stand apart in the source and are kept apart here.
# Experiments:
# [1] = tested on: breast cancer cell line MCF7; assay: Cell growth inhibitory (cytotoxic) activity assay; assay type: cell-based, human; settings: Homo sapiens
# Description: SPSS software version 22.0 was used to test the IC50 values.
# [2] = tested on: colorectal cancer cell line HCT116; assay: Cell growth inhibitory (cytotoxic) activity assay; assay type: cell-based, human; settings: Homo sapiens, HCT-116
# Description: (§1) The cell growth inhibitory activities of compounds 1–3 against fourteen different human cell lines (human liver cell line LX-2; hepatocellular cancer line HEPG2; human intestinal epithelial cell line NCM460; colorectal cancer cell lines HCT116 and SW480; normal human breast cell line MCF-10A; breast cancer cell line MCF7; triple-negative breast cancer cell lines MDA-MB-231, MDA-MB-468, and Bt-549; human umbilical vein endothelial cell line; lung cancer cell line A549; cervical cancer cell line Hela; and cholangiocarcinoma cell line RBE) were tested according to the previously published methods. SPSS software version 22.0 was used to test the IC50 values. Cisplatin and adriamycin were used as positive control agents, and all the experiments were carried out in triplicate.
# [3] = tested on: cervical cancer cell line Hela; assay: Cell growth inhibitory (cytotoxic) activity assay; assay type: cell-based, human; settings: Homo sapiens
# Description: as §1
# [4] = tested on: triple-negative breast cancer cell line MDA-MB-231; assay: Cell growth inhibitory (cytotoxic) activity assay; assay type: cell-based, human; settings: Homo sapiens; MDA-MB-231 (TNBC)
# Description: as §1
# [5] = tested on: triple-negative breast cancer cell line Bt-549; assay: Cell growth inhibitory (cytotoxic) activity assay; assay type: cell-based, human; settings: Homo sapiens; Bt-549 (TNBC)
# Description: as §1
# [6] = tested on: triple-negative breast cancer cell line MDA-MB-468; assay: Cell growth inhibitory (cytotoxic) activity assay; assay type: cell-based, human; settings: Homo sapiens; MDA-MB-468 (TNBC)
# Description: as §1
# [7] = tested on: cholangiocarcinoma cell line RBE; assay: Cell growth inhibitory (cytotoxic) activity assay; assay type: cell-based, human; settings: Homo sapiens
# Description: as §1
# [8] = tested on: colorectal cancer cell line SW480; assay: Cell growth inhibitory (cytotoxic) activity assay; assay type: cell-based, human
# Description: as §1
# [9] = tested on: lung cancer cell line A549; assay: Cell growth inhibitory (cytotoxic) activity assay; assay type: cell-based, human; settings: Homo sapiens
# Description: as §1
# [10] = tested on: hepatocellular cancer line HEPG2; assay: Cell growth inhibitory (cytotoxic) activity assay; assay type: cell-based, human; settings: Homo sapiens
# Description: as §1
# [11] = tested on: MRSA; assay: Antibacterial MIC, CLSI microdilution; assay type: cell-based, Staphylococcus aureus; settings: Staphylococcus aureus, 37 °C, 16–18 h, read-out: MIC
# Protocol: (§2) An antibacterial activity test of compounds 1–3 was conducted according to a standard protocol provided by the Clinical and Laboratory Standards Institute (CLSI). Sixteen bacterial strains were used, including Staphylococcus aureus ATCC 29213, Staphylococcus aureus 16339, Staphylococcus aureus 1862, Staphylococcus aureus 3090, Staphylococcus aureus 991, Staphylococcus aureus 669, Staphylococcus aureus 745324, Staphylococcus aureus 16162, Staphylococcus aureus (cfr) GDE4P037P, Enterococcus faecalis ATCC 29212, Enterococcus faecalis 36950, Micrococcus luteus ML01, MRSA, Bacillus subtilis BS01, Enterococcus gallinarum 5F52C, and Enterococcus faecium 36711. Compounds 1–3 were dissolved in DMSO at a concentration of 3.2 mg/mL, and vancomycin and ampicilin were used as antibacterial control agents. […] All the assays were carried out in triplicate.
# [12] = tested on: fourteen human cell lines; assay: Cytotoxicity, span over the whole cell panel; assay type: cell-based; settings: span of the IC50 values over all fourteen cell lines, read-out: IC50 values, range against fourteen human cell lines
# Description: as §1
# [13] = tested on: Bacillus subtilis BS01; assay: Antibacterial MIC, CLSI microdilution; assay type: cell-based; settings: Bacillus subtilis BS01; 37 °C, 16–18 h; read-out: MIC
# Protocol: as §2
# [14] = tested on: Staphylococcus aureus (cfr) GDE4P037P; assay: Antibacterial MIC, CLSI microdilution; assay type: cell-based; settings: Staphylococcus aureus (cfr) GDE4P037P; 37 °C, 16–18 h; read-out: MIC
# Protocol: as §2
# [15] = tested on: Micrococcus luteus ML01; assay: Antibacterial MIC, CLSI microdilution; assay type: cell-based; settings: 37 °C, 16–18 h
# Protocol: as §2
# [16] = tested on: Enterococcus faecium 36711; assay: Antibacterial MIC, CLSI microdilution; assay type: cell-based; settings: Enterococcus faecium 36711; 37 °C, 16–18 h; read-out: MIC
# Protocol: as §2
# [17] = tested on: Staphylococcus aureus 16339; assay: Antibacterial MIC, CLSI microdilution; assay type: cell-based; settings: Staphylococcus aureus 16339; 37 °C, 16–18 h; read-out: MIC
# Protocol: as §2
# [18] = tested on: Staphylococcus aureus 3090; assay: Antibacterial MIC, CLSI microdilution; assay type: cell-based; settings: Staphylococcus aureus 3090; 37 °C, 16–18 h; read-out: MIC
# Protocol: as §2
# [19] = tested on: Staphylococcus aureus 1862; assay: Antibacterial MIC, CLSI microdilution; assay type: cell-based; settings: Staphylococcus aureus 1862; 37 °C, 16–18 h; read-out: MIC
# Protocol: as §2
# [20] = tested on: Staphylococcus aureus ATCC 29213; assay: Antibacterial MIC, CLSI microdilution; assay type: cell-based; settings: ATCC29213; Staphylococcus aureus ATCC 29213; 37 °C, 16–18 h; read-out: MIC
# Protocol: as §2
# [21] = tested on: Enterococcus faecalis ATCC 29212; assay: Antibacterial MIC, CLSI microdilution; assay type: cell-based; settings: ATCC29212; Enterococcus faecalis ATCC 29212; 37 °C, 16–18 h; read-out: MIC
# Protocol: as §2
# [22] = tested on: Staphylococcus aureus 991; assay: Antibacterial MIC, CLSI microdilution; assay type: cell-based; settings: Staphylococcus aureus 991; 37 °C, 16–18 h; read-out: MIC
# Protocol: as §2
# [23] = tested on: Enterococcus gallinarum 5F52C; assay: Antibacterial MIC, CLSI microdilution; assay type: cell-based; settings: Enterococcus gallinarum 5F52C; 37 °C, 16–18 h; read-out: MIC
# Protocol: as §2
# [24] = tested on: Staphylococcus aureus 669; assay: Antibacterial MIC, CLSI microdilution; assay type: cell-based; settings: Staphylococcus aureus 669; 37 °C, 16–18 h; read-out: MIC
# Protocol: as §2
# [25] = tested on: Enterococcus faecalis 36950; assay: Antibacterial MIC, CLSI microdilution; assay type: cell-based; settings: Enterococcus faecalis 36950; 37 °C, 16–18 h; read-out: MIC
# Protocol: as §2
# [26] = tested on: Staphylococcus aureus 16162; assay: Antibacterial MIC, CLSI microdilution; assay type: cell-based; settings: Staphylococcus aureus 16162; 37 °C, 16–18 h; read-out: MIC
# Protocol: as §2
# [27] = tested on: Staphylococcus aureus 745324; assay: Antibacterial MIC, CLSI microdilution; assay type: cell-based; settings: Staphylococcus aureus 745324; 37 °C, 16–18 h; read-out: MIC
# Protocol: as §2
# [28] = tested on: Staphylococcus simulans AKA1; assay: Antibacterial MIC, CLSI microdilution; assay type: cell-based; settings: Staphylococcus simulans AKA1; 37 °C, 16–18 h; read-out: MIC
# [29] = tested on: human umbilical vein endothelial cell line HUVEC; assay: Cell growth inhibitory (cytotoxic) activity assay; assay type: cell-based
# Description: as §1
# [30] = tested on: human liver cell line LX-2; assay: Cell growth inhibitory (cytotoxic) activity assay; assay type: cell-based; settings: LX-2 (human liver cell line)
# Description: as §1
# [31] = tested on: normal human breast cell line MCF-10A; assay: Cell growth inhibitory (cytotoxic) activity assay; assay type: cell-based; settings: MCF-10A (normal human breast cell line)
# Description: as §1
# [32] = tested on: human intestinal epithelial cell line NCM460; assay: Cell growth inhibitory (cytotoxic) activity assay; assay type: cell-based; settings: Homo sapiens; NCM460 (normal intestinal epithelial cell line)
# Description: as §1
# [33] = tested on: TNBC cell lines MDA-MB-231, MDA-MB-468, and Bt-549; assay: Cytotoxicity, span over TNBC cell lines; assay type: cell-based; settings: Homo sapiens; span over MDA-MB-231, MDA-MB-468 and Bt-549; read-out: IC50 values, range against TNBC cell lines
# Description: as §1
# [34] = tested on: methicillin-resistant Staphylococcus aureus; design: method as in PMID 27097765; settings: ref [24]; cited from earlier work
# [35] = tested on: Staphylococcus lentus; design: method as in PMID 18396903; settings: ref [35]; cited from earlier work
# [36] = tested on: Bacillus subtilis; design: method as in PMID 18396903; settings: ref [35]; cited from earlier work
molecule,measurement,setting,value
"C[C@]1(O)CC(=O)c2c(cc(O)c3c2C(=O)c2cccc(O)c2C3=O)C1 [Rabelomycin (3), rabelomycin]",IC50,[1],4.48 µM
same,IC50,[2],4.72 µM
same,IC50,[3],16.1 µM
same,IC50,[4],8.67 µM
same,IC50,[5],7.85 µM
same,IC50,[6],2.18 µM
same,IC50,[7],4.23 µM
same,IC50,"[8]; Homo sapiens, SW480 (colorectal cancer)",1.57 µM
same,selective index (SI),[8]; SW480 versus normal intestinal epithelial cell line NCM460,4.49
same,IC50,[9],5.97 µM
same,IC50,[10],8.64 µM
same,MIC,[11],8 µg/mL
same,IC50,[12],1.57 to 16.1 µM
same,MIC,[13],4 µg/mL
same,MIC,[14],4 µg/mL
same,MIC,[15]; Micrococcus luteus ML01,2 µg/mL
same,MIC,"[15]; Micrococcus luteus, ML01, Micrococcus luteus ML01, read-out: MIC",1 to 2 µg/mL
same,MIC,[16],32 µg/mL
same,MIC,[17],8 µg/mL
same,MIC,[18],8 µg/mL
same,MIC,[19],8 µg/mL
same,MIC,[20],8 µg/mL
same,MIC,[21],8 µg/mL
same,MIC,[22],16 µg/mL
same,MIC,[23],32 µg/mL
same,MIC,[24],16 µg/mL
same,MIC,[25],8 µg/mL
same,MIC,[26],8 µg/mL
same,MIC,[27],8 µg/mL
same,MIC,[28],16 µg/mL
same,IC50,[29],10.9 µM
same,IC50,[30],13.4 µM
same,IC50,[31],11.3 µM
same,IC50,[32],7.05 µM
same,IC50,[33],2.18 to 8.67 µM
(-)-Streptophenazine B,MIC,[34],4.2 µg/mL
streptophenazine C,MIC,[35],46.9 µg/mL
same,MIC,[36],15.6 µg/mL
